From patent US20220288077A1, “PROSTATITIS TREATMENT” (NATIONAL INSTITUTE OF BIOLOGICAL SCIENCES, priority 2019, published 2022)

Tests used:
[1] = test system: carrageenan-induced rat prostatitis model; assay: Carrageenan-induced rat prostatitis model: prostate weight assessment (prostate index); assay type: in vivo; details: for prostate index (ratio of prostate gland wet weight/body weight): seven days after carrageenan, model group 2.15±0.30 mg/g
Text: (§1) Adult male Sprague-Dawley rats (250-350 g body weight) were used for the experiments. All animals were acclimated for 1 week before any experimental procedures.
(§2) All the SD rats were randomly divided into different groups (n=8-10): control group, model group, and compounds-treated groups. For injection of carrageenan or saline, rats were anesthetized with 4% chloral hydrate and were fixed in a supine position. Then, the lower abdomen above the penis of rats was shaved and the skin in this area sterilized using 3 applications of 75% medical alcohol. A small midline incision was made in the sterile area, then the bladder and the prostate carefully exposed. With a 30-gauge needle, 50 ul sterile suspension of 3% carrageenan (Sigma, MO, USA) or saline (sham group) was injected into both right and left ventral lobes of the prostate gland. Different doses of RIPA-56 (12.5 mg/kg, 25 mg/kg, IP) or Finasteride (5 mg/kg, PO) were administrated to rats before (−17 min) and after (once every 12 h) carrageenan injection. While an equal amount of solvents were intraperitoneally and orally injected to control rats.
Seven days after carrageenan injection, rats were sacrificed and the prostates were harvested. Ventral and dorsolateral lobes of prostate glands were removed by cutting the ducts at the urethral connection and weighed immediately after removal. The prostate index (ratio of prostate gland wet weight/body weight) was calculated.

TNFα = assay: Carrageenan-induced rat prostatitis model: TNFα in prostate homogenate (ELISA); assay type: in vivo; details: 25 mg/kg intraperitoneal B.I.D; per mg prostate homogenate protein; model 3.04±2.28, sham 0.52±0.26
Text: as §1
as §2, with “Different doses of RIPA-56 (12.5 mg/kg, 25 mg/kg, IP) or Finasteride (5 mg/kg, PO) were administrated to rats before (−17 min) and after (once every 12 h) carrageenan injection. While an equal amount of solvents were intraperitoneally and orally injected to control rats.” left out
Part of rat prostate were weighed, mixed with cell lysis buffer (500 μl buffer per 100 mg tissue) and homogenized using FastPrep-24 homogenizer (MP Biomedicals). […] The supernatant was collected, and the total protein concentration was measured with the Bradford protein assay method. […] The level of cytokines was determined using rat TNFα, IL-1β and IL-6 ELISA kit (Biolegend or ProteinTech), and normalized to prostate protein concentration.

[2] = test system: carrageenan-induced rat prostatitis model; assay: Carrageenan-induced rat prostatitis model: histological analysis of prostate (H & E); assay type: in vivo; details: FIG. 1 C
Text: as §1
as §2, with “While an equal amount of solvents were intraperitoneally and orally injected to control rats.” left out
For histological analysis, one part of the prostate was fixed in 10% neutral buffered formalin for 24 h, dehydrated in ethanol, cleared in xylene, and embedded in paraffin blocks. […] Each slide was evaluated randomly in 3 different areas by an independent investigator unaware of the animal grouping using a microscope.

aged mice = details: seminal vesicles, seminiferous tubules, sperm production, reproductive capacity; cited from earlier work
rat EAP model = details: cited from earlier work
[3] = test system: carrageenan-induced male rat prostate disease model; assay: Carrageenan-induced male rat prostate disease model: representative RIP1, RIP3 and MLKL inhibitors; assay type: in vivo; details: list after the methods of the example; protocols based on RIPA-56
Method: Experimental protocols for the compounds of Table 1 were based on those used for RIPA-56. Each inhibitor was intraperitoneally or orally administrated to rat before carrageenan treatment, at the dose of 20 mg/kg to 100 mg/kg.
Each inhibitor was intraperitoneally or orally administrated to rat before carrageenan treatment, at the dose of 20 mg/kg to 100 mg/kg.
as §2, with “Then, the lower abdomen above the penis of rats was shaved and the skin in this area sterilized using 3 applications of 75% medical alcohol.” left out, “Different doses of RIPA-56 (12.5 mg/kg, 25 mg/kg, IP) or Finasteride (5 mg/kg, PO) were administrated to rats before (−17 min) and after (once every 12 h) carrageenan injection.” left out

CCC(C)(C)C(=O)N(O)Cc1ccccc1 [RIPA-56]
prostate index (ratio of prostate gland wet weight/body weight) ([1]; 12.5 mg/kg intraperitoneal B.I.D): 1.99 ± 0.41 mg/g | prostate index (ratio of prostate gland wet weight/body weight) ([1]; 25 mg/kg intraperitoneal B.I.D): 1.82 ± 0.22 mg/g | inhibition to the prostate enlargement and edema ([1]; 12.5 and 25 mg/kg intraperitoneal B.I.D): dose-dependent inhibition | TNFα level in the prostate homogenate (TNFα): 1.02 ± 0.37 pg/mg | inflammatory response in the prostate (histopathology) ([2]; RIPA-56 treated rats vs disease-model group): less severe than the disease-model group | inflammatory cells in the interstitial space (histopathology) ([2]; RIPA-56 treated rats): Only few inflammatory cells | protection of aged mice from reproductive system aging (aged mice): can protect aged mice from seminal vesicles enlargement

CCOc1ccccc1OCCN[C@H](C)Cc1ccc(OC)c(S(N)(=O)=O)c1 [tamsulosin]
anti-inflammatory efficacy (rat EAP model): partial anti-inflammatory efficacy

CC(C)(C)NC(=O)[C@H]1CC[C@H]2[C@@H]3CC[C@H]4NC(=O)C=C[C@]4(C)[C@H]3CC[C@]12C [finasteride]
decrease of the prostate index of carrageenan-treated rats ([1]; 5 mg/kg orally B.I.D): 23%

CC(C)(C)c1nc(-c2cccc(NS(=O)(=O)c3c(F)cccc3F)c2F)c(-c2ccnc(N)n2)s1 [Dabrafenib, N-[3-[5-(2-amino-4-pyrimidinyl)-2-(1,1-dimethylethyl)-4-thiazolyl]-2-fluorophenyl]-2,6-difluoro-benzenesulfonamide]
listed under heading Active RIP3 Inhibitors [3]: Active

C#CC(C)(C)C(=O)N1CC[C@H]1c1ccccc1 [(S)-2,2-dimethyl-1-(2-phenylazetidin-1-yl)but-3-yn-1-one]
listed under heading Active RIP1 Inhibitors [3]: Active

CC(C)(C)C(=O)N1N=CC[C@H]1c1ccccn1 [(S)-2,2-dimethyl-1-(5-(pyridin-2-yl)-4,5-dihydro-1H-pyrazol-1-yl)propan-1-one]
listed under heading Active RIP1 Inhibitors [3]: Active

CN1C(=O)[C@@H](NC(=O)c2cc(Cc3ccccc3)on2)COc2ccccc21 [GSK481, (S)-5-benzyl-N-(5-methyl-4-oxo-2,3,4,5-tetrahydrobenzo[b][1,4]oxazepin-3-yl)isoxazole-3-carboxamide]
listed under heading Active RIP1 Inhibitors [3]: Active

O=c1c2c3c(sc2ncn1Cc1ccccc1)CCC3 [3-benzyl-6,7-dihydro-3H-cyclopenta[4,5]thieno[2,3-d]pyrimidin-4(5H)-one]
listed under heading Active RIP1 Inhibitors [3]: Active
